What was measured:
BKCaK+ channels = assay: BKCa K+ channel activity in Xenopus oocytes, two-electrode voltage clamp; format: cell-based; conditions: 2-APB 100 μM, BAPTA-AM, PMA 1 μM
Procedure: Xenopus laevis frogs were obtained from Xenopus I (Ann Arbor, Mich.). Their care and handling were in accordance with the highest standards of institutional guidelines. To isolate oocytes, the frogs were operated on under anesthesia with an aerated solution of 3-aminobenzoic acid ethyl ester. Oocytes were separated by treatment with collagenase and agitation for two hours in a Ca^2+-free medium containing 82.5 mM NaCl, 2 mM KCl, 1 mM MgCl2, 5 mM HEPES, 2.5 mM sodium pyruvate, 100 units/ml penicillin and 100 μg/ml streptomycin.
Stage V-VI oocytes were collected and stored in ND96 (96 mM NaCl, 2 mM KCl, 1 mM MgCl2, 1.8 mM CaCl2, and 5 mM HEPES, pH 7.4) supplemented with 50 μg/ml gentamicin. This oocyte containing solution was maintained at 18° C. with continuous gentle shaking while the ND96 medium was changed with a fresh one every day.
Two-electrode voltage-clamp recordings were obtained from individual oocytes placed in a small Plexiglas net chamber (5 ml). Electrophysiological experiments were performed using microelectrodes filled with 3 M KCl (resistance of 0.2-0.7 MΩ) and an Oocyte Clamp amplifier (OC-725C; Warner Instrument, CT, USA) to record BKc K^+ channel activity at room temperature (Choi et al., Mol Cells 31, 133-140, 2011). For physiological recordings of BKCaK^+ channel activity, oocytes were first perfused with a Cl^−- and Ca^2+-free solution (mM: 96 NaOH, 2 KOH, 8 Mg-gluconate, 5 HEPES, 5 EGTA, pH 7.4 with methanesulfonic acid) supplemented with 500 μM anthracene-9-carboxylic acid, a Cl^− channel blocker, to block endogenous Cl-channels (Lu et al., J. Biol. Chem. 265, 16190-16194.1990). Then, the oocytes were clamped at −80 mV holding potential, followed by step depolarization from the holding potential to +40 mV at regular intervals of […] for 400 ms to record outward currents.

LPA receptor = assay: Gintonin-induced intracellular Ca2+ increase in LPA receptor-expressing B103 cells (subtype not named); format: cell-based, human; conditions: pretreated
From the text: Optionally, the method may further comprise (8) pre-treating the suspended B103 cells with LPA receptor antagonists and LPA receptor-mediated signaling-relevant drugs (e.g., pertussis toxin, PLC inhibitors, IP3 receptor antagonists) to examine whether the cells decrease or increase in intracellular free Ca^2+, prior to treatment with gintonin; (9) performing site-directed mutagenesis to identify an amino acid of LPA receptors with which gintonin interact to activate the LPA; and (10) examining whether gintonin activates orphan GPCRs including GPR35 and GPR87, and free fatty acid GPCRs including GPR40, GPR41, GPR43 and GPR120, all known for activation by LPA.
In this Example, gintonin, or ginsenoside Rb1 or Rg1 was examined for its ability to induce a transient increase of [Ca^2+]i in Fura-2AM-loaded B103 cells which were transfected with LPA receptors and in Fura-2AM-loaded B103 cells which were not transfected with LPA receptors. […]
(§1) Briefly, Fura 2-AM loaded cells were diluted with an experimental medium to a final density of 2˜4×10^6 cells/mL, and transferred to polystyrene cuvettes (Elkay Ultra-VU). […] Emission was detected at 510 nm Excitation and emission slit widths were 5 nm Background calibration was performed as described by Jørgensen et al.

[1] = tested on: LPA receptor-null B103 cells (empty vector); assay: Intracellular free Ca2+ (Fura-2AM) in B103 cells transfected with empty vector; format: cell-based, rat; conditions: B103 cells not expressing LPA3 receptor
From the text: LPA family receptors are endogenous to cells of most organs. B103 rat neuroblastoma cells, known as LPA receptor-null cells (Valentine et al., Biochim Biophys Acta 1780. 597-605) were transiently transfected with a plasmid (vector) carrying one of genes coding for LPA1(edg-2), LPA2(edg-4), LPA3(edg-7), LPA4, LPA5 and LPA6 receptors or a plasmid carrying none of them (empty vector). Two or three days after transfection, the cells are suspended, and made permeable. Then, the permeable cells are treated with Fura-2AM, a fluorescent dye binding to calcium, and then with gintonin, followed by spectrofluorephotometry to examine whether gintonin induces an increase in intracellular free Ca^2+ level. […]
as §1, with “al. […]” for “al.”

LPA3 receptor = target: T1, LPA3 receptor (Homo sapiens, UniProt Q9UBY5); assay: Intracellular free Ca2+ (Fura-2AM) in LPA3-expressing B103 cells; format: cell-based; conditions: LPA3 receptor-expressing B103 cells; read-out: EC50, intracellular calcium increase
T1 construct: host or cells: B103 rat neuroblastoma cells
T1 sequence (Q9UBY5 1-353): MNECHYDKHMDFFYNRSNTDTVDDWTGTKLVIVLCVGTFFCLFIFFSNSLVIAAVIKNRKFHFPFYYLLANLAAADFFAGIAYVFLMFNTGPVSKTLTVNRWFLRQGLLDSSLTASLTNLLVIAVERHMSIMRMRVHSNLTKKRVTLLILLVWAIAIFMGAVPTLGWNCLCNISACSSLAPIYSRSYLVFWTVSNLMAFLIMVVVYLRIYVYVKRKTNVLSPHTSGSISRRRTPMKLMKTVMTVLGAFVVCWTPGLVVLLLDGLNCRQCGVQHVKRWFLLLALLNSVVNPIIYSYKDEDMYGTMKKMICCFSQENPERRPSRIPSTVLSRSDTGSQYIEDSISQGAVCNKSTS
From the text: LPA family receptors are endogenous to cells of most organs. B103 rat neuroblastoma cells, known as LPA receptor-null cells (Valentine et al., Biochim Biophys Acta 1780. 597-605) were transiently transfected with a plasmid (vector) carrying one of genes coding for LPA1(edg-2), LPA2(edg-4), LPA3(edg-7), LPA4, LPA5 and LPA6 receptors or a plasmid carrying none of them (empty vector). Two or three days after transfection, the cells are suspended, and made permeable. Then, the permeable cells are treated with Fura-2AM, a fluorescent dye binding to calcium, and then with gintonin, followed by spectrofluorephotometry to examine whether gintonin induces an increase in intracellular free Ca^2+ level.
(1) preparing large quantities of plasmids carrying respective LPA family receptor genes and an empty plasmid carrying none of them through amplification and purification (maxi-preparation); (2) verifying the expression of LPA receptors wherein B103 cells are transfected with haematoglutin (HA)-tagged LPA receptors, and then subjected to Western blotting analysis using an anti-HA primary antibody and a horseradish peroxidase (HRP)-conjugated secondary antibody to develop a color; (3) verifying the expression of LPA receptors wherein B1-3 cells are transfected with haematoglutin (HA)-tagged LPA receptors, and then subjected to confocal laser microscopy using an anti-HA antibody and a fluorescence dye Cy3-conjugated secondary antibody; (4) transfecting the empty plasmid and each of the plasmids carrying LPA family receptor genes into B103 cells; (5) treating the transfected B103 cells with trypsin (0.05% trypsin with EDTA, w/v) 2-3 days post-transfection, to give a cell suspension; (6) culturing the suspended B103 cells with Fura-2AM (2.5 μM); and (7) treating the suspended B103 cells with gintonin and quantifying a change in intracellular free Ca^2+ level in a cuvette by spectrofluorephotometry using Fura-2AM.
Human LPA (lysophosphatidic acid) receptor subtypes, orphan GPCRs (G protein coupled receptors) and plasmids carrying GPCRs were purchased from Missouri S&T resource Center (www.cDNA.org).
The transient transfection of LPA receptor subtypes was carried out with the aid of Lipofectamine 2000 of Invitrogen. A plasmid (10.8 μg) carrying each LPA receptor (LPA1, LPA2, LPA3, LPA4, LPA5, and LPA6) was transfected into B103 cells grown in 10-cm dishes, and incubated for 2 days prior for use in experiments.
In this Example, gintonin, or ginsenoside Rb1 or Rg1 was examined for its ability to induce a transient increase of [Ca^2+]i in Fura-2AM-loaded B103 cells which were transfected with LPA receptors and in Fura-2AM-loaded B103 cells which were not transfected with LPA receptors. To this end, B103 cells (2˜4×10^6/ml) pre-treated with Fura-2AM were suspended in a 1.5 mM Ca^2+-containing buffer or Ca^2+-free buffer, and incubated 37° C. for 30 min, followed by analyzing intracellular calcium levels in the B103 cells in the presence of gintonin or ginsenosides.
Briefly, B103 cells (1˜2×10^6/ml) were mixed with 2.5 μM Fura 2-AM in a Ca^2+ buffer (pH 7.4) containing NaCl 120 mM, KCl 5 mM, MgCl2 1 mM, CaCl2 1.5 mM, glucose 10 mM, and HEPES 25 mM, and a Ca^2+ free buffer (pH 7.4) containing NaCl 120 mM, KCl 5 mM, MgCl2 1 mM, EGTA 0.2 mM, glucose 10 mM, and HEPES 25 mM at 37° C. for 30 min in water bath with shaking according to the Jørgensen method, and washed three times with Ca^2+ buffer or Ca^2+ free buffer to remove excess Fura-2AM.
[Ca^2+]i was estimated in Fura 2AM-loaded cells in suspension using an RF-5300PC intracellular ion measurement system (Shimadzu Corporation, Japan).
Briefly, Fura 2-AM loaded cells were diluted with an experimental medium to a final density of 2˜4×10^6 cells/mL, and transferred to polystyrene cuvettes (Elkay Ultra-VU). The cells were stirred using Teflon-coated magnets, and the cuvette housing was thermostatically controlled at 37° C. The excitation wavelengths were alternated between 340 and 380 nm under computer control. […]

mice [2] = assay: Passive avoidance test, scopolamine-caused long-term memory impairment; format: in vivo, mouse; conditions: scopolamine alone (0.9 mg/kg, i.p.); test session 24 h after learning
Procedure: ICR male mice (25-28 g), purchased from Oriental Bio (Seoul, Korea), were bred according to the guideline of the Institutional Animal Care and Use Committee of Konkuk University, and subjected to passive avoidance test to examine memory maintenance impairment and the protection of gintonin against memory impairment according to the method of Yang et al. (Yang et al., Biol Pharm Bull 32, 1710-1715, 2009).
A passive avoidance test was performed in a training chamber which was divided into two compartments (20×20×20 cm in size, each) separated by an automatically moving guillotine door (5×5 cm): one compartment was lighted while the other remained dark where metal rods installed in a lattice pattern on the bottom so as to deliver an electrical foot shock (Gemini Avoidance System, San Diego, USA).
For an acquisition trial, a mouse was first placed in the lighted compartment, facing away from the dark compartment and allowed to explore for 10 sec. After 10 sec, the guillotine door was opened and the mouse was allowed to explore freely. When the mouse entered the dark compartment with all four paws according to its habit, the guillotine door was closed, and a footshock (0.5 mA, 3 sec duration) was delivered. The latency time to enter the dark compartment was recorded (from the time the door was lifted). 120 min before experimentation, gintonin (25, 50, 100 mg/kg, p.o) was administered while tacrine (10 mg/kg, p.o) was used as a positive control. Memory impairment was induced by injecting scopolamine (0.9 mg/kg, i.p.) 30 min after gintonin or tacrine administration (Araujo et al., Prog Neuropsycopharmcol Biol Psychiatry 29, 411-422, 2005). For a negative control, a physiological saline was used.
24 Hours after the learning session, an experiment was performed without injecting gintonin. The mouse was positioned again in the lighted compartment. After 10 sec of acclimation, the latency time to enter the dark compartment was recorded (from the time the door was lifted).

mice [3] = assay: Water maze test, scopolamine-caused spatial cognition impairment; format: in vivo, mouse; conditions: scopolamine alone (0.9 mg/kg i.p.)
Procedure: The Moths water maze set up contained a round water pool (45 cm deep with a diameter of 90 cm) filled with milk-mixed water (22±1° C.) to a depth of 30 cm. It was placed in a dark, sound-shielded room in which various visual cues were established. A white platform (6 cm in diameter, 29 cm in height) was inside the pool, with the top thereof 1 cm below the water surface in the center of one quadrant of the maze
On day 1, the mice were trained to swim for 60 sec. Subsequently, the training was conducted four times a day for four consecutive days, with the platform inside the pool. When the mouse reached the platform, it was allowed to sit on the platform only for 10 sec. If the failed in reaching the platform within 60 sec, it was guided to reach the platform and stay for 10 sec thereon. Afterwards, the mouse was returned back to the home cage and allowed to dry its body under an IR lamp. The time interval between trials was 30 sec.
The time to reach the hidden platform was recorded in each trial using a video camera-based Ethovision System (Nodulus, Wageningen, the Netherlands).
For each training trial, the mouse was placed into the pool at one quadrant at positions which were different day by day. One day after the final training trial, the mouse was evaluated. In this regard, after the platform was removed, the mouse was allowed to swim for 60 sec in search for the platform, and the time to swim in the quadrant where the platform was located was recorded. Gintonin (25, 50, or 100 mg/kg, p.o.) in physiological saline was administered 1 hr before test, every day. Tacrine (10 mg/kg, p.o.) was used as a positive control. Memory impairment was induced by scopolamine (0.9 mg/kg i.p.) 30 min after gintonin administration. For a negative control, only physiological saline was administered.
An examination was made of simple spatial reasoning. To this end, while the mice were allowed to swim in the absence of the rescue platform in the pool, the time period during which the mice swam in the quadrant where the rescue platform had been located was recorded.

Compound: CCCCCCCCCCCCCC(=O)O[C@@H]1[C@@H](C)[C@@]2(O)[C@@H](C=C(CO)C[C@]3(O)C(=O)C(C)=C[C@@H]23)[C@@H]2C(C)(C)[C@]12OC(C)=O [PMA]
- effect on gintonin-induced BKCaK+ channel activation (BKCaK+ channels; Kil6425 10 μM, U73122, U73343 1 μM): caused the gintonin-induced activation of BKCaK^+ channels to disappear
- effect on ginsenoside Rg3-induced BKCaK+ channel activity (BKCaK+ channels; U73122 1 μM): had no influences on the activity of ginsenoside Rg3
- effect of pretreatment on gintonin-induced intracellular calcium increase (LPA receptor): blocked

Compound: lysophosphatidic acid [LPA, reference compound]
- increase of intracellular calcium level [1]: did not induce the increase of intracellular calcium level
- EC50 (LPA3 receptor): 58.9 ± 5.54 nM

Compound: CN1[C@@H]2C[C@@H](OC(=O)[C@H](CO)c3ccccc3)C[C@H]1[C@@H]1O[C@@H]12 [scopolamine, reference compound]
- latency time (mice [2]): 23.07 ± 1.95 s
- swimming time in the quadrant where the platform had been located (mice [3]): 13.47 ± 1.86 s
